How the values were obtained:
[1] = Pharmacokinetic determination in mice after gavage administration (P.O.); format: in vivo; settings: male, CD-1, mouse, po, 10 mg/kg, plasma
Experimental: Mice and rats were used as test animals to study the pharmacokinetic behavior of the compounds of the present disclosure in plasma following gavage administration (P.O.). Plasma samples were collected at specific time points, compound concentrations in plasma were detected by LC-MS/MS, and pharmacokinetic parameters were calculated to evaluate the pharmacokinetics.
• Mice, CD-1, male, Zhejiang Vital River Laboratory Animal Technology Co., Ltd. • Rats, Sprague-Dawley, male, Zhejiang Vital River Laboratory Animal Technology Co., Ltd., Shanghai Jihui Experimental Animal Breeding Co., Ltd.
After administration to mice and rats, venous blood samples of 0.03 mL and 0.2 mL, respectively, were collected at 0.0833 (IV), 0.25, 0.5, 1, 2, 4, 8, and 24 hours and placed in EDTA-K2 test tubes. Plasma was separated by centrifugation at 4 °C, 4000 g for 5 minutes and stored at -80 °C.
• 1) 10 µL of plasma sample was precipitated by adding 200 µL of acetonitrile, vortex mixed, and centrifuged for 15 minutes. • 2) The processed supernatant was diluted with water and analyzed by LC/MS/MS to determine the concentration of the test compound.
Pharmacokinetic parameters were calculated using WinNonlin 8.3. The pharmacokinetic parameters for mice P.O. are shown in Table 4, and for rats P.O. in Table 5. Cmax represents the maximum plasma concentration, T1/2 represents the terminal elimination half-life, MRTInf represents the mean residence time, and AUC represents the area under the plasma concentration-time curve. Table 4 Pharmacokinetic Parameters of the Compounds of the Present Disclosure in Mice

[2] = molecular target: T1, human CYP11B2 enzyme (Homo sapiens, UniProt P19099); assay: Enzyme inhibition activity assay in G402 cells stably expressing human CYP11B2 (aldosterone production from 11-DOC, LC/MS); format: cell-based; settings: 1 µM 11-DOC, 16 hours, aldosterone detected
T1 construct: the ORF of human CYP11B1 or CYP11B2 were transfected into G402 cells; expressed in transfected cells
T1 sequence (P19099 25-503): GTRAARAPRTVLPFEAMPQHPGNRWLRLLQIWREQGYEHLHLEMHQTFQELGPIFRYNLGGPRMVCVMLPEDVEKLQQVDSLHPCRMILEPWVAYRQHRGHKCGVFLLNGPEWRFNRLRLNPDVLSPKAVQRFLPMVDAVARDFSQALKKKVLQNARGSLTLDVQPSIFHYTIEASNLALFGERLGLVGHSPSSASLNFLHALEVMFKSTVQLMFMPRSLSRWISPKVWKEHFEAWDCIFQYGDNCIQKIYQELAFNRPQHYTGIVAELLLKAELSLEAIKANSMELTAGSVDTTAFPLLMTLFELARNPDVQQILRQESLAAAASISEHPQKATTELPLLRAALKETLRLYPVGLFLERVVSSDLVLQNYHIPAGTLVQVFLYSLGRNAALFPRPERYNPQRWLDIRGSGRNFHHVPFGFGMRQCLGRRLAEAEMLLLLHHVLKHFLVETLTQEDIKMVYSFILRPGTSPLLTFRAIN
Excerpt: (§1) G402 cells (ATCC, CRL 1440) are epithelioid cells isolated from the kidney of a patient with renal failure and are a type of leiomyoblastoma. For the screening of highly specific CYP11B2 inhibitors, we specifically used G402 cell lines stably expressing human CYP11B2 enzyme or human CYP11B1 enzyme for experimental development.
(§2) Construction of Stably Transfected Cell Lines: Expression plasmids containing suitable promoters, suitable drug resistance markers, and the ORF of human CYP11B1 or CYP11B2 were transfected into G402 cells using standard techniques. The cells were then screened using the specific puromycin resistance marker. Monoclonal cells stably expressing human CYP11B2 were selected for expansion, and 11-deoxycorticosterone (11-DOC) was used as the specific substrate to evaluate enzyme activity based on aldosterone production. Monoclonal cells stably expressing human CYP11B1 were selected for expansion, and 11-deoxycortisol (11-DC) was used as the specific substrate, with cortisol production as the detection target for specific enzyme activity evaluation. The G402 cell lines stably expressing CYP11B1/CYP11B2 were cultured at 37 °C, 5% CO2, 95% air in complete medium (McCoy's 5A + 10% FBS + 1% PS + 0.5 µg/mL puromycin).
(§3) Enzyme Inhibition Activity Assay: CYP11B1 G402/CYP11B2 G402 cells were spread out flatly in cell culture plates. After 24 hours, the medium was changed to an enzyme testing system (DMEM/F12 + 2.5% charcoal-stripped FCS). Small molecule inhibitors at various concentrations were added. After 1 hour, appropriate concentrations of specific substrates (1 µM 11-DOC / 1 µM 11-DC) were added and co-incubated with the cells for 16 hours. Cells were then collected, and specific products were detected using LC/MS methods with an AB SCIEX TRIPLE QUAD 5500+, CTO-40S instrument (CYP11B2 enzyme detecting aldosterone; CYP11B1 enzyme detecting cortisol).
(§4) The IC50 values of the compounds were determined based on the G402 testing system. The dose-dependent inhibition of enzyme activity was calculated by plotting the added inhibitor concentration (x-axis) against the percentage of product inhibitory activity relative to the control group (y-axis) based on product formation at various compound concentrations. The following data were then fitted using the least squares method with XLfit 5.5.0 for a four-parameter logistic curve fit: [formula] • Y-axis: Percentage of product inhibitory activity relative to the control group; • logIC50: IC50 was determined using XLFit.
(§5) The maximum enzyme activity corresponds to the amount of control product steroid/aldosterone in the absence of inhibitor, set as 100%. The minimum enzyme activity corresponds to the amount of reference control product steroid/aldosterone in the presence of inhibitor. Table 3 Inhibitory Activity of the Compounds of the Present Disclosure on CYP11B2 and CYP11B1

[3] = molecular target: T2, human CYP11B1 enzyme (Homo sapiens, UniProt P15538); assay: Enzyme inhibition activity assay in G402 cells stably expressing human CYP11B1 (cortisol production from 11-DC, LC/MS); format: cell-based; settings: 1 µM 11-DC, 16 hours, cortisol detected
T2 construct: the ORF of human CYP11B1 or CYP11B2 were transfected into G402 cells; expressed in transfected cells
T2 sequence (P15538 25-503): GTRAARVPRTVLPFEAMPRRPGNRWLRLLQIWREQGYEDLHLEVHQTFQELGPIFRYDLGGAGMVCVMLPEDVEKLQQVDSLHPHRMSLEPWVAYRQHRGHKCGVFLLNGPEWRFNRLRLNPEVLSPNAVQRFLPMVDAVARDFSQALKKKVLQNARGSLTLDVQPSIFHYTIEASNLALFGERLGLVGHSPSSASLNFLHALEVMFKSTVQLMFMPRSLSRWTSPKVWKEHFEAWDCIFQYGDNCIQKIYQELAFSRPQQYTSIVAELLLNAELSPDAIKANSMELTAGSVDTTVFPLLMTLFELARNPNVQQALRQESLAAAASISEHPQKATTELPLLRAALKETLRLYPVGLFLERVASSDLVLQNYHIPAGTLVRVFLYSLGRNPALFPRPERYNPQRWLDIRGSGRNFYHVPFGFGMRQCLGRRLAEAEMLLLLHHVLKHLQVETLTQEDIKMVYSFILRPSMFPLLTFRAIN
Excerpt: as §1, §2, §3, §4, §5

SMILES | Cmax [1] | MRT inf [1] | half-life [1] | AUC(0-t) ([1]; read-out: AUC0-24) | IC50 [2] | IC50 [3]
[2H]C([2H])([2H])NC(=O)N[C@@H]1CCCc2c(-c3ccc4c(c3)COC(=O)N4C)cncc21 [Compound A16] | 51.7 µM | 2.37 h | 1.07 h | 184 µM·h | 0.0095 µM | –
CNC(=O)N[C@@H]1CCCc2c(-c3ccc4c(ccc(=O)n4C)c3)cncc21 [Compound A21] | – | – | – | – | 0.0094 µM | 0.739 µM
CNC(=O)N[C@@H]1CCOc2c(-c3ccc4c(c3)cc(C#N)n4C)cncc21 [Compound A37] | – | – | – | – | 0.0025 µM | 0.311 µM
CCC(=O)N[C@@H]1CC=Cc2c(-c3ccc4c(c3)CCC(=O)N4C)cncc21 [Compound A04-P1] | – | – | – | – | 0.0056 µM | 0.244 µM
COC(=O)N[C@@H]1CCOc2c(-c3cc(F)c4c(ccc(=O)n4C)c3)cncc21 [Compound A49] | – | – | – | – | 0.0149 µM | 2.21 µM
[2H]C([2H])([2H])NC(=O)N[C@@H]1CCOc2c(-c3ccc4c(c3)CCC(=O)N4C)cncc21 [Compound A11] | – | – | – | – | 0.0073 µM | 1.26 µM
[2H]C([2H])([2H])NC(=O)N[C@@H]1CCOc2c(-c3ccc4c(c3)COC(=O)N4C)cncc21 [Compound A18] | – | – | – | – | 0.0075 µM | 0.517 µM
COC(=O)N[C@@H]1CCCc2c(-c3cc(F)c4c(ccc(=O)n4C)c3)cncc21 [Compound A47] | – | – | – | – | 0.0069 µM | 0.72 µM
[2H]C([2H])([2H])N(C(=O)N[C@@H]1CCCc2c(-c3ccc4c(c3)CCC(=O)N4C)cncc21)C([2H])([2H])[2H] [Compound D16] | – | – | – | – | 0.0195 µM | 1.23 µM
CNC(=O)N[C@@H]1CCCc2c(-c3ccc4c(c3)OCC(=O)N4C)cncc21 [Compound A24] | – | – | – | – | 0.0117 µM | 1.55 µM
[2H]C([2H])([2H])OC(=O)N[C@@H]1CCOc2c(-c3ccc4c(c3)CCC(=O)N4C)cncc21 [Compound A13] | – | – | – | – | 0.0045 µM | 0.381 µM
CCC(=O)N[C@@H]1CCCc2c(-c3ccc4c(c3)CNC(=O)N4C)cncc21 [Compound C06] | – | – | – | – | 0.0311 µM | 2.4 µM
[2H]C([2H])([2H])OC(=O)N[C@@H]1CCCc2c(-c3ccc4c(c3)CCC(=O)N4C)cncc21 [Compound D15] | – | – | – | – | 0.0025 µM | 0.128 µM
[2H]C([2H])([2H])NC(=O)N[C@@H]1CCCc2c(-c3cc(F)c4c(ccc(=O)n4C)c3)cncc21 [Compound A22] | – | – | – | – | 0.0076 µM | 1.19 µM
CCC(=O)N[C@@H]1CCCc2c(-c3ccc4c(c3)cc(C#N)n4C)cncc21 [Compound C36] | – | – | – | – | 0.0014 µM | 0.266 µM
[2H]C([2H])([2H])OC(=O)N[C@@H]1CCOc2c(-c3ccc4c(c3)cc(C#N)n4C)cncc21 [Compound A36] | – | – | – | – | 0.0013 µM | 0.136 µM
[2H]C([2H])([2H])OC(=O)N[C@@H]1CCOc2c(-c3cc(Cl)c4c(ccc(=O)n4C)c3)cncc21 [Compound A54] | – | – | – | – | 0.0136 µM | 1.66 µM
[2H]C([2H])([2H])OC(=O)N[C@@H]1CCCc2c(-c3cc(Cl)c4c(ccc(=O)n4C)c3)cncc21 [Compound A52] | – | – | – | – | 0.0059 µM | 0.797 µM
C[C@H](F)C(=O)N[C@@H]1CCCc2c(-c3ccc4c(c3)CCC(=O)N4C)cncc21 [Compound D07-P2] | – | – | – | – | 0.0118 µM | 1.63 µM
CN(C)C(=O)N[C@@H]1CCCc2c(-c3ccc4c(ccc(=O)n4C)c3)cncc21 [Compound A23] | – | – | – | – | 0.0125 µM | 1.92 µM
[2H]C([2H])([2H])OC(=O)N[C@@H]1CCCc2c(-c3ccc4c(c3)COC(=O)N4C)cncc21 [Compound A28] | – | – | – | – | 0.0036 µM | 0.111 µM
COC(=O)N[C@@H]1CCOc2c(-c3cc(Cl)c4c(ccc(=O)n4C)c3)cncc21 [Compound A53] | – | – | – | – | 0.0131 µM | 2.01 µM
CCC(=O)N[C@@H]1CCCc2c(-c3cc(Cl)c4c(ccc(=O)n4C)c3)cncc21 [Compound C42] | – | – | – | – | 0.0111 µM | 4.03 µM
CN1CCN([C@@H]2CCCc3c(-c4ccc5c(c4)CCC(=O)N5C)cncc32)C1=O [Compound D10] | – | – | – | – | 0.0047 µM | 0.275 µM

From patent EP4806899A1, “FUSED RING DERIVATIVE, PREPARATION METHOD THEREFOR AND USE THEREOF IN MEDICINE” (Shanghai Qilu Pharmaceutical Research and Development …, priority 2023, dated 2025)
